Patent US9643995B2, “Triterpene glycoside and triterpene compositions and methods of using same” (Research Foundation of the City University of New York, priority 2013, dated 2017)
Converted amounts (≈) assume the structure as drawn.

Assays:
[1] = system: Her2; assay: Western blot analysis of Her2 protein level; format: cell-based; settings: 40 μg/ml, 24 h, normalized to β-acetin
From the text: (§1) Effect of actein on the level of Her2 protein: The effect of actein on the level of Her2 and activated Her2 (p-Her2) protein was examined using Western blot analysis. […] The results validate an effect of actein on the Her2 pathway.

[2] = system: activated Her2 (p-Her2); assay: Western blot analysis of activated Her2 protein level; format: cell-based; settings: 40 μg/ml, 24 h, normalized to β-acetin
From the text: as §1

[3] = rat, in vivo, 35.7 mg/kg; cited from earlier work
[4] = system: MDA-MB-453 cells; assay: Apoptosis: caspase 3 activity; format: cell-based, human; settings: actein 2 μg/ml, Herceptin 16 μg/ml, 48 h
[5] = system: MCF10F; assay: Growth inhibition of nonmalignant mammary epithelial cells by actein; format: cell-based, human
[6] = system: calcium channels; assay: Calcium release from cells; format: cell-based; settings: low concentrations (100 nM); stated as believed mode of action
[7] = system: MDA-MB-453 cells; assay: Apoptosis: DNA fragmentation; format: cell-based, human; settings: actein 2 μg/ml, Herceptin 16 μg/ml, 48 h

CC(=O)O[C@@H]1C[C@@]23C[C@@]24CC[C@H](O[C@@H]2OC[C@@H](O)[C@H](O)[C@H]2O)C(C)(C)[C@@H]4CC[C@H]3[C@]2(C)C[C@@H]3O[C@]4(C[C@@H](C)[C@@H]3[C@@]12C)O[C@H](O)[C@@]1(C)O[C@@H]41 [actein, Actein]
level of Her2 protein [1]: 0.72 fold | level of p-Her2 protein [2]: 0.37 fold | peak serum level [3]: about 2.4 μg/ml | time of peak serum level [3]: 6 h | caspase 3 activity [4]: 1.29 fold relative to control | IC50 [5]: 42 µg/mL (≈ 62.1 µM) | effect on calcium channels [6]: immediately opens calcium channels and releases calcium from cells | DNA fragmentation [7]: 0.89 fold relative to control
